From the supplement of paper PMC10883282

Legend:
Assay in all cases: relative viability vs DMSO control (72 h) (fraction); higher = more viable cells
A204 = tested on: A204
In short: (§1)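 Plates held 72 h at 37 °C and 5% CO2 contained sarcoma cell lines seeded in 384-well format to reach 80–90% confluence, plus 2.5 µl of serially diluted compound added after 24 h. Source plate concentrations ran from 10 mM to 0.0002 mM, with 0.1% DMSO as vehicle and a 5 µM positive control. Percent growth from ATPLite readings, averaged over up to triplicate wells, gave relative viability. Values were rescaled with 1 as full and 0 as none.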

G401 = tested on: G401
In short: as §1

HS729 = tested on: HS729
In short: as §1

KHOS-240S = tested on: KHOS-240S
In short: as §1

MES-SA = tested on: MES-SA
In short: as §1

SK-ES-1 = tested on: SK-ES-1
In short: as §1

SK-LMS-1 = tested on: SK-LMS-1
In short: as §1

SW1353 = tested on: SW1353
In short: as §1

SW684 = tested on: SW684
In short: as §1

SW872 = tested on: SW872
In short: as §1

SW982 = tested on: SW982
In short: as §1

SYO-1 = tested on: SYO-1
In short: as §1

CC1(C)CC=C(c2nc(C3CC(C)(C)OC(C)(C)C3)ccc2NC(=O)c2nc(C#N)c[nH]2)CC1 [Edicotinib]
Settings	relative viability
A204, 0.00017 µM	1.08
A204, 0.00051 µM	1.06
A204, 0.00152 µM	1.06
A204, 0.00457 µM	1.05
A204, 0.01372 µM	1.08
A204, 0.04115 µM	1.06
A204, 0.1235 µM	1.03
A204, 0.3704 µM	1.05
A204, 1.111 µM	1.04
A204, 3.333 µM	1.07
A204, 10 µM	1.08
G401, 0.00017 µM	1.02
G401, 0.00051 µM	0.99
G401, 0.00152 µM	1
G401, 0.00457 µM	1.01
G401, 0.01372 µM	1.04
G401, 0.04115 µM	0.9919
G401, 0.1235 µM	1.02
G401, 0.3704 µM	1
G401, 1.111 µM	0.952
G401, 3.333 µM	0.989
G401, 10 µM	0.929
HS729, 0.00017 µM	1
HS729, 0.00051 µM	0.931
HS729, 0.00152 µM	0.953
HS729, 0.00457 µM	0.909
HS729, 0.01372 µM	0.89
HS729, 0.04115 µM	0.902
HS729, 0.1235 µM	0.924
HS729, 0.3704 µM	0.9
HS729, 1.111 µM	0.894
HS729, 3.333 µM	0.933
HS729, 10 µM	0.999
KHOS-240S, 0.00017 µM	1.03
KHOS-240S, 0.00051 µM	1.01
KHOS-240S, 0.00152 µM	1.02
KHOS-240S, 0.00457 µM	1.05
KHOS-240S, 0.01372 µM	1.01
KHOS-240S, 0.04115 µM	1.05
KHOS-240S, 0.1235 µM	1.05
KHOS-240S, 0.3704 µM	1.05
KHOS-240S, 1.111 µM	1.118
KHOS-240S, 3.333 µM	1.06
KHOS-240S, 10 µM	0.841
MES-SA, 0.00017 µM	0.945
MES-SA, 0.00051 µM	0.962
MES-SA, 0.00152 µM	0.935
MES-SA, 0.00457 µM	0.939
MES-SA, 0.01372 µM	0.9423
MES-SA, 0.04115 µM	0.93
MES-SA, 0.1235 µM	0.909
MES-SA, 0.3704 µM	0.92
MES-SA, 1.111 µM	0.868
MES-SA, 3.333 µM	0.879
MES-SA, 10 µM	0.887
SK-ES-1, 0.00017 µM	1.04
SK-ES-1, 0.00051 µM	1.06
SK-ES-1, 0.00152 µM	1.04
SK-ES-1, 0.00457 µM	1.01
SK-ES-1, 0.01372 µM	1.04
SK-ES-1, 0.04115 µM	1.06
SK-ES-1, 0.1235 µM	1.04
SK-ES-1, 0.3704 µM	1
SK-ES-1, 1.111 µM	0.986
SK-ES-1, 3.333 µM	0.958
SK-ES-1, 10 µM	0.969
SK-LMS-1, 0.00017 µM	1.01
SK-LMS-1, 0.00051 µM	1.02
SK-LMS-1, 0.00152 µM	1.04
SK-LMS-1, 0.00457 µM	1.04
SK-LMS-1, 0.01372 µM	1.07
SK-LMS-1, 0.04115 µM	1.05
SK-LMS-1, 0.1235 µM	0.995
SK-LMS-1, 0.3704 µM	0.997
SK-LMS-1, 1.111 µM	0.929
SK-LMS-1, 3.333 µM	1.04
SK-LMS-1, 10 µM	1.013
SW684, 0.00017 µM	1.13
SW684, 0.00051 µM	1.14
SW684, 0.00152 µM	1.16
SW684, 0.00457 µM	1.15
SW684, 0.01372 µM	1.13
SW684, 0.04115 µM	1.1
SW684, 0.1235 µM	1.11
SW684, 0.3704 µM	1.17
SW684, 1.111 µM	1.24
SW684, 3.333 µM	1.14
SW684, 10 µM	1.16
SW872, 0.00017 µM	1.01
SW872, 0.00051 µM	0.994
SW872, 0.00152 µM	0.992
SW872, 0.00457 µM	1
SW872, 0.01372 µM	1.01
SW872, 0.04115 µM	0.997
SW872, 0.1235 µM	1.01
SW872, 0.3704 µM	1.04
SW872, 1.111 µM	1.06
SW872, 3.333 µM	1.07
SW872, 10 µM	1.08
SW982, 0.00017 µM	1.05
SW982, 0.00051 µM	1.04
SW982, 0.00152 µM	1.07
SW982, 0.00457 µM	1.07
SW982, 0.01372 µM	1.08
SW982, 0.04115 µM	1.064
SW982, 0.1235 µM	1.05
SW982, 0.3704 µM	1.066
SW982, 1.111 µM	1.07
SW982, 3.333 µM	1.07
SW982, 10 µM	1.07
SW1353, 0.00017 µM	0.973
SW1353, 0.00051 µM	0.987
SW1353, 0.00152 µM	0.958
SW1353, 0.00457 µM	0.9936
SW1353, 0.01372 µM	0.9624
SW1353, 0.04115 µM	0.965
SW1353, 0.1235 µM	0.96
SW1353, 0.3704 µM	1.03
SW1353, 1.111 µM	1.09
SW1353, 3.333 µM	1.08
SW1353, 10 µM	1.098
SYO-1, 0.00017 µM	0.931
SYO-1, 0.00051 µM	0.925
SYO-1, 0.00152 µM	0.919
SYO-1, 0.00457 µM	0.96
SYO-1, 0.01372 µM	0.963
SYO-1, 0.04115 µM	0.94
SYO-1, 0.1235 µM	0.961
SYO-1, 0.3704 µM	1.01
SYO-1, 1.111 µM	1.03
SYO-1, 3.333 µM	0.981
SYO-1, 10 µM	1.04
